According to US7507792B2, “MDA-7 proteins and methods of use thereof” (The Trustees of Columbia University In The City of New York, priority 1993, dated 2009):

How the values were obtained:
Type in all cases: cell-based, human
[1] = test system: wild-type p53 protein; test: Immunoprecipitation of p53 in H0-1 cells; conditions: IFN-β 2000 units/ml, MEZ 10 ng/ml
Method: (§1) Immunoprecipitation analyses were performed as described previously (Duigou et al., 1991; Su et al., 1993; Jiang et al., 1994b). […] Cultures were starved of methionine for 1 h at 37° C. in methionine-free medium, cells were concentrated by pelleting and labeled for 1 h (p53) or 4 h (p21 and Actin) at 37° in 1 ml of the same medium with 100 μCi of [^35S] (NEN; Express ^35S). After labeling, the cells were washed twice with ice-cold phosphate-buffered saline and lysed for 1 h on ice by the addition of RIPC (20 mM Tris-base, pH 7.5, 500 mM NaCl, 0.05% Nonidet P-40, 100 μg/ml phenylmethylsulfonyl fluoride and 0.02% sodium azide). The lysate was clarified by centrifugation in an Eppendorf microfuge at 10,000×g for 10 min at 4° C. H0-1 samples containing 4×10^6 counts were incubated with 2 μg of p53 monoclonal antibody (Ab1; PAb421) (Oncogene Sciences), WAF1/CIP1 (C-19) (Santa Cruz Biotechnology) (or MDA-6 peptide-derived) rabbit polyclonal IgG or actin monoclonal antibody (Oncogene Sciences) with rocking at 4° C. for 24 h. Labeled cell lysates were also prepared from F0-1, L0-1, SH-1, WM239, FM516-SV, SW480, MeWo, human skin fibroblasts and Saos-2 cells. Samples containing 4×10^6 counts were incubated with 2 μg of the p53 monoclonal antibody Ab1 (PAb421) or Ab3 (PAb240) (Oncogene Sciences). […]

[2] = test system: p21 protein; test: Immunoprecipitation of p21 in H0-1 cells; conditions: IFN-β 2000 units/ml, MEZ 10 ng/ml
Method: as §1

[3] = test system: mda-6 (WAF1/CIP1/SDI1); conditions: HL-525, RA 1 μM; for time of treatment at which mda-6 expression is induced: TPA 3 nM, Vit D3 400 nM, 1 to 12 h test period
Method: HL-60 cells were originally provided by Dr. R. C. Gallo (National Cancer Institute, Bethesda, Md.) (Collins et al., 1978; Huberman & Callaham, 1979). HL-60 cells designated HL-525 were derived by cloning HL-60 cells after subculturing 102 times in the presence of increasing concentrations (up to 3 μM) of TPA at 5- to 8-day intervals (Homma et al., 1986; Mitchell et al., 1986). […] Prior to the experiments described in this study, the HL-525 cells were subcultured more than 20 times in the absence of TPA. Cells were grown in 100-mm tissue culture dishes in RPMI 1640 medium supplemented with 20% fetal bovine serum, penicillin (100 units/ml) and streptomycin (100 μg/ml) (Grand Island Biological Co., NY) at 37° C. in an atmosphere of 5% CO2 in air in a humidified incubator. The 1,25-(OH)2D3(Vit D3) and TPA were dissolved in a final concentration of 0.01% DMSO, and all-trans retinoic acid (RA) was dissolved in 0.1% DMSO in culture medium. […] Control cultures were treated with DMSO at a final concentration of 0.1% in culture medium. For experiments designed to test the effect of DMSO on HL-60 and HL-525 cells, DMSO was added to tissue culture medium at a final concentration of 1%. Stock solutions of CHX (10 mg/ml) were prepared in culture medium. CHX was added at a final concentration of 10 μg/ml. To examine a requirement for protein synthesis on mda-6 gene expression, HL-60 or HL-525 cells were seeded into 150 mm Petri dishes (5×10^5 cells/ml) in 30 ml of medium. CHX was added to a final concentration of 10 μg/ml 15 min prior to the addition of TPA to 3 nM. Cells were harvested at various times after addition of TPA for subsequent RNA isolation and analysis.
RNA was purified by centrifugation through a CsC1 cushion as described by Chirgwin et al. (1979). Ten μg of RNA was denatured with glyoxal/DMSO, electrophoresed on 1.0% agarose gels, transferred to nylon membranes, hybridized to a ^32P-labeled mda-6 probe (Jiang and Fisher, 1993) and then after stripping the membrane hybridized to a ^32P-labeled rat GAPDH probe (Fort et al., 1985), as described previously (Reddy et at., 1991; Su et al., 1991; Jiang et al., 1992). Following hybridization, the filters were washed and exposed for autoradiography (Reddy et al., 1991; Su et al., 1991; Jiang et al., 1992). mda-6 and GAPDH gene expression were also determined by reverse transcription-polymerase chain reaction (RT-PCR) as described (Adollahi et al. 1991; Lin et al., 1994). Total cytoplasmic RNA was treated with 0.5 units DNase (Boehringer-Mannheim Biochemicals)/μg RNA in 15% glycerol, 10 mM Tris, pH 7.5, 2.5 mM MgCl2, 0.1 mM EDTA, 80 mM KC1, 1 mM CaCl2 and 1 unit/ml RNasin (Promega) at 30° C. for 10 min. RNA was extracted with phenol-chloroform, precipitated with sodium acetate/ethanol and RNA pellets were resuspended in diethylpyrocarbonate-treated H2O. One μg of total RNA was reverse transcribed with 200 units of murine leukemia virus reverse transcriptase (Bethesda Research Laboratories) in 20 μl containing 1 mM deoxyribonucleotide triphosphates, 4 mM MgCl2, 10 mM Tris, pH 8.3, 50 mM KC1, 0.001% gelatin and 0.2 μg oligo-dT primer. Samples were diluted to 100 μl with buffer containing 0.2 mM deoxyribonucleotide triphosphates, 2 mM MgCl2, 10 mM Tris, pH 8.3, 50 mM KC1 and 0.001% gelatin. […]

SMILES	wild-type p53 protein level ([1]; 24 h)	wild-type p53 protein level ([1]; over 48, 72, 96 h)	p21 mRNA and protein ([2]; 24 h)	p21 protein level ([2]; over 48, 72, 96 h)	time of treatment at which mda-6 expression is detected ([3]; extended treatment 12 h to 6 d) [days]	time of treatment at which mda-6 expression is induced [3] [h]
C=C(C)[C@@]12O[C@@]3(c4ccccc4)O[C@@H]1[C@@H]1[C@@H]4O[C@]4(CO)[C@@H](O)[C@]4(O)C(=O)C(C)=C[C@H]4[C@@]1(O3)[C@H](C)[C@H]2OC(=O)/C=C/C=C/c1ccccc1 [MEZ, mezerein]	no significant change	decreases	induced	increases		
CC1=C(/C=C/C(C)=C/C=C/C(C)=C/C(=O)O)C(C)(C)CCC1 [RA, trans-retinoic acid]					2	> 12
CCCCCCCCCCCCCC(=O)O[C@@H]1[C@@H](C)[C@@]2(O)[C@@H](C=C(CO)C[C@]3(O)C(=O)C(C)=C[C@@H]23)[C@@H]2C(C)(C)[C@]12OC(C)=O [TPA, 12-O-tetradecanoyl-phorbol-13-acetate]						12
